Earlier results on 1 compound are cited in paper PMC8997995, “Amphiphilic Cell-Penetrating Peptides Containing Natural and Unnatural Amino Acids as Drug Delivery Agents” (Cells, 2022).

Details of the data set: method as in earlier work. The conditions noted are these: cited from earlier work. An excerpt:
In continuation of our efforts to design cyclic CPPs with improved molecular transporter properties, we report here the design and synthesis of a new class of CPPs, containing R, diphenylalanine (Dip), and W residues (Figure 1), the evaluation of their cytotoxicity, cellular uptake, nanostructure formation, and mechanism of actions.

For `N[C@@H](Cc1c[nH]c2ccccc12)C(=O)O` [W, tryptophan], the “Log P (partition coefficient)” value is recorded as 1.82.
